Data on one compound can be found in article PMC6920499, “Sustainability potentials of novel laccase tinctures from Stenotrophomonas maltophilia BIJ16 and Bordetella bronchiseptica HSO16: From dye decolourization to denim bioscouring” (Biotechnology Reports, 2019).

Each structure is given as a SMILES string.

Assay [1] deals with T1, Stenotrophomonas sp. BIJ16 laccase (Berl1^1b2 laccase).
T1 construct: gene MCOStm; crude culture supernatant, native secreted laccase, not purified; several laccase-like genes inferred by PCR
As to the kind of experiment: ABTS oxidation at […] nm, Lineweaver-Burk. Type of assay: biochemical. As to conditions: crude laccase; standard assay potassium phosphate pH 6, 30 °C. From the text:
BIJ16 laccase (Berl1^1b2 laccase)

Assay [2] has as its system T2, Bordetella sp. HSO16 laccase (Hb16c laccase).
T2 construct: gene cueO; crude culture supernatant, native secreted laccase, not purified; several laccase-like genes inferred by PCR
As to the kind of experiment: ABTS oxidation at […] nm, Lineweaver-Burk. Type of assay: biochemical. The settings on record: crude laccase; standard assay potassium phosphate pH 6, 30 °C. An excerpt:
HSO16 laccase (Hb16c laccase)

Regarding `CCn1c(=NN=c2sc3cc(S(=O)(=O)O)ccc3n2CC)sc2cc(S(=O)(=O)O)ccc21` [ABTS, 2,2’-azino-bis (3-ethylbenzothiazoline-6-sulfonic acid)], the results for the Michaelis-Menten constant (Km) in assay [1] and in assay [2] were 0.636 µM and 1.09 µM, respectively.

What is called Km is the substrate concentration at which the rate is half of its maximum.
